Experimental data reported in US10844351B2, “Method for producing otic progenitors” (priority 2015, dated 2020).

Legend:
Assay type in all cases: cell-based, human
[1] = tested on: H14S9 hES cell line; test: QPCR of ectoderm, mesoderm and endoderm lineage marker gene expression after 12 day otic differentiation
Protocol: With the H14S9 hES cell line, 12 day otic differentiation experiments were carried out in control DFNB, FGF, or FGF with 10 μM IWR-1-endo supplemented medium. Gene expression of the three germ layer lineages relative to the baseline DFNB condition were quantified by QPCR. Two gene markers for each germ layer were investigated; PAX6 and NEST/N (ectoderm), BRACHYURY and MEOX1 (mesoderm), and AFP and GATA6 (endoderm) (FIG. 2).
Following a lost-of function/gain-of function paradigm, an experiment was done to determine the effect of activating canonical Wnt signalling throughout the 12 days of otic differentiation. The small molecule compound BIO (6-bromoindirubin-3′-oxime, Tocris) is a potent inhibitor of GSK-3β kinase, a component of the β-catenin degradation complex. Inhibition of GSK-3β kinase activity disrupts the proteolytic breakdown of β-catenin and so Wnt activity is sustained (Meijer et al., 2003). BIO is well established in the literature and has been used to investigate survival and proliferation of hES cells and also lineage differentiation studies (Dravid et al., 2005) (Tseng et al., 2006). BIO was tested at a concentration of 2 μM (as recommended in the literature). […] In contrast to inhibiting canonical Wnt signalling throughout the 12 day protocol, activating canonical Wnt signalling throughout appears to downregulate gene expression of the otic and ectoderm markers, with upregulation of markers of mesoderm and endoderm.

[2] = tested on: H14S9 hES cell line; test: QPCR of otic marker gene expression after 12 day otic differentiation protocol
Protocol: The effect of the Wnt inhibitors was initially explored in the backdrop of a known differentiation protocol, which includes FGF 3 and FGF 10 supplementation from the outset. Experiments were carried out to determine the effect of canonical Wnt inhibition on the differentiation of otic progenitors in FGF medium (standard concentration of 50 ng/ml for each FGF 3 and FGF 10) and obtain an optimal working concentration. IWR-1-endo was present from day 0 of differentiation (day 0 refers to the initial seeding of the hES cells into differentiation conditions) and were maintained throughout the 12 day protocol. At the end of the differentiation protocol, RNA was extracted and PAX2, PAX8 and FOXG1 gene expression was quantified by real time PCR (QPCR) using SYBR Green (Sigma Aldrich). Delta Cts were calculated against the large ribosomal protein RPLPO housekeeping gene, and Delta Ct values were compared against the levels expressed by cells differentiated in the control DFNB medium (Livak and Schmittgen, 2001). FIG. 1 compares the dose responses of IWR-1-endo and the effect on the gene expression of PAX2, PAX8 and FOXG1 in the H14S9 hES cell line. Dimethyl sulfoxide (DMSO) was the vehicle for all small molecule compounds. A vehicle-only control was added to FGF medium to ascertain the effects of DMSO. […] This provided confidence that the Wnt inhibitor compound was exerting an effect on gene expression, and not the carrier vehicle. […] The optimal concentration of IWR-1-endo agrees with published findings in human stem cell studies (Chen et al., 2009, Hudson et al., 2012).
Further investigating the timing of canonical Wnt inhibition it was important to address whether inhibition was required throughout the whole 12-day differentiation protocol. Experiments were set up to inhibit canonical Wnt signalling for different lengths of time. In combination with FGF medium, Wnt inhibition took place from day 0 to day 4, day 0 to day 6, or day 0 to day 8. […] At the end of day 12, gene expression of PAX2, PAX8 and FOXG1 was quantified relative to the DFNB baseline condition, and is shown in FIG. 6. […]

[3] = tested on: H14S9 hES cell line; test: Cell death in differentiating cultures; settings: 20 μM IWR-1-endo in FGF medium
Protocol: The effect of the Wnt inhibitors was initially explored in the backdrop of a known differentiation protocol, which includes FGF 3 and FGF 10 supplementation from the outset. Experiments were carried out to determine the effect of canonical Wnt inhibition on the differentiation of otic progenitors in FGF medium (standard concentration of 50 ng/ml for each FGF 3 and FGF 10) and obtain an optimal working concentration. IWR-1-endo was present from day 0 of differentiation (day 0 refers to the initial seeding of the hES cells into differentiation conditions) and were maintained throughout the 12 day protocol. At the end of the differentiation protocol, RNA was extracted and PAX2, PAX8 and FOXG1 gene expression was quantified by real time PCR (QPCR) using SYBR Green (Sigma Aldrich). Delta Cts were calculated against the large ribosomal protein RPLPO housekeeping gene, and Delta Ct values were compared against the levels expressed by cells differentiated in the control DFNB medium (Livak and Schmittgen, 2001). FIG. 1 compares the dose responses of IWR-1-endo and the effect on the gene expression of PAX2, PAX8 and FOXG1 in the H14S9 hES cell line. Dimethyl sulfoxide (DMSO) was the vehicle for all small molecule compounds. A vehicle-only control was added to FGF medium to ascertain the effects of DMSO. […]

[4] = 2 μM BIO in FGF medium throughout 12 days, one experiment
[5] = FGF medium with 10 μM IWR-1-endo, 12 days, compared to FGF condition

Row | Structure (SMILES) | gene expression of markers of mesoderm and endoderm [1, 4] | gene expression of the otic and ectoderm markers [1, 4] | gene expression of PAX2, PAX8 and FOXG1 ([2]; 10 μM IWR-1-endo in FGF medium (50 ng/ml FGF 3 and FGF 10), day 0 to day 12, relative to DFNB) | gene expression of PAX2, PAX8 or FOXG1 ([2]; IWR-1-endo day 0 to day 4 or day 0 to day 6, then FGF medium only until day 12, compared to FGF medium alone) | gene expression of the otic markers ([2]; canonical Wnt inhibition with IWR-1-endo day 0 to 8 or day 0 to 12, compared to standard FGF medium) | ectodermal differentiation (PAX6, NESTIN gene expression) [1, 5] | gene expression of mesoderm and endoderm markers [1, 5] | AFP gene expression ([1]; FGF medium with IWR-1-endo, 12 days, compared to FGF condition) | cell death in the cultures [3]
1 | O=C1Nc2cc(Br)ccc2/C1=C1/Nc2ccccc2/C1=N\O [BIO, 6-bromoindirubin-3′-oxime] | upregulation | downregulate | – | – | – | – | – | – | –
2 | O=C(Nc1cccc2cccnc12)c1ccc(N2C(=O)[C@@H]3[C@H](C2=O)[C@@H]2C=C[C@H]3C2)cc1 [IWR-1-endo] | – | – | more robust and reproducible upregulation | did not significantly alter | Significant upregulation | enhanced further over the FGF condition | significantly reduced compared to the FGF condition | significant downregulation | very high levels of cell death
